Measured values reported in patent publication US7262204B2, “Modulation of CCR4 function” (Amgen Inc., priority 2000, dated 2007).

target: T1, CCR4 (Homo sapiens, UniProt P51679); assay: CCR4 binding assay (inhibition of 125I-TARC binding to cells expressing CCR4); conditions: CCR4 antagonist activity
T1 construct: host or cells: CEM cells
T1 sequence (P51679 1-360): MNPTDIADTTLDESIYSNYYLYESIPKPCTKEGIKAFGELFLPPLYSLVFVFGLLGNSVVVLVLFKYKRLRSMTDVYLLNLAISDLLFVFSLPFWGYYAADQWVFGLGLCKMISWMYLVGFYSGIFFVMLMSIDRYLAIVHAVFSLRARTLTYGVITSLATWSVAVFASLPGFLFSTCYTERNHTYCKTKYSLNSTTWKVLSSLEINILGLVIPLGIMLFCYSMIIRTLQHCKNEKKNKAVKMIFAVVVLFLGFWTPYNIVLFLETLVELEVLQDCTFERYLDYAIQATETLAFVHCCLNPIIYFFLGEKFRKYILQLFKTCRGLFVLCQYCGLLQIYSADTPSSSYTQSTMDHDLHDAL
Source text: This example illustrates a CCR4 binding assay that can be used for evaluating the compounds of the present invention.
Detection of Radiolabelled TARC and/or MDC Binding to CCR4
^125I-labelled TARC and MDC are available from commercial sources (e.g., Amersham-Pharmacia or Perkin Elmer Life Sciences). All buffers and materials are available from commercial sources (e.g., Gibco BRL, Sigma). To measure binding of ^125I-TARC or ^125I-MDC to cells expressing CCR4 (e.g., CEM cells, available from the ATCC), the ^125I-TARC or ^125I-MDC is diluted to a concentration of approximately 200 pM in a buffered saline solution (e.g., RPMI supplemented with 0.5% bovine serum albumin), and added to an equal volume of a suspension of cells (e.g., CEM cells at 5×10^6 cells/mL). The resulting mixture is incubated for a period of time (e.g., 2 hours). The unbound ^125I-TARC or ^125I-MDC is separated from the cells by filtration, e.g., by passage through GF/B filter plate (Packard Biosciences) pre-treated with 0.3% polyethyleneimine (Sigma), using a Packard Filtermate 96 (Packard Biosciences). The amount of ^125I-TARC or ^125I-MDC retained with the cells on the filterplate is measured by adding a small amount of scintillation fluid (e.g., 50 μL of Microscint-20, obtained from Packard Biosciences), and reading scintillation on appropriate detection equipment, e.g., a Packard TopCount 383 (Packard Biosciences).
Non-specific binding of ^125I-TARC or ^125I-MDC can be estimated by measuring the amount of ^125I-TARC or ^125I-MDC retained with the cells on the filterplate when the assay is performed in the presence of a large excess of unlabelled TARC or MDC.
Inhibition of ^125I-TARC or ^125I-MDC binding to CCR4 is defined as a decrease in the retention of ^125I-TARC or ^125I-MDC to the cells on the filterplate.
The assay described above varies only moderately from standardly used procedures, e.g., Imai et al. (1997) J. Biol. Chem. 272:15036-15042, Imai et al. (1998) J. Biol. Chem. 273:1764-1768.

| Structure (SMILES) | IC50 [nM] |
| --- | --- |
| CC(C)CN(Cc1csc(Nc2cccc3ccccc23)n1)CC(C)C [Compound 15] | > 1000 |
| CC(C)CN(CC(C)C)C(C)c1csc(Nc2cccc3ccccc23)n1 (stereo not shown) [Compound 18] | > 1000 |
| Clc1ccc2nc(Nc3cccc4ccccc34)sc2c1 [Compound 19] | < 1000 |
| c1ccc(CN2CCc3sc(Nc4cccc5ccccc45)nc3C2)cc1 [Compound 20] | > 1000 |
